Results reported in patent publication US10906910B2, “Substituted bicyclic pyrimidine compounds with tubulin and multiple receptor inhibition” (Duquesne University of the Holy Spirit, priority 2014, dated 2021).
Read-outs that look alike come from different tables or passages of the source. Each block holds one compound with its values, some of them ahead of it.

Experiments:
PDGFRβ = PDGFRβ (Homo sapiens, UniProt P09619); test: PDGFRβ kinase inhibition, whole-cell assay; assay type: cell-based; details: whole-cell assay; read-out: kinase inhibition IC50 [whole-cell assays] PDGFRβ
wild type HeLa cells = test: HeLa cytotoxicity, wild type; assay type: cell-based
VEGFR2 = VEGFR2 (Homo sapiens, UniProt P35968); test: VEGFR2 kinase inhibition, whole-cell assay; assay type: cell-based; details: read-out: kinase inhibition IC50 [whole-cell assays] VEGFR2
EGFR = EGFR (Homo sapiens, UniProt P00533); test: EGFR kinase inhibition, whole-cell assay; assay type: cell-based; details: read-out: kinase inhibition IC50 [whole-cell assays] EGFR
[1] = tested on: βIII-tubulin overexpressing HeLa cell line; test: HeLa cytotoxicity, βIII-tubulin overexpressing; assay type: cell-based; details: for IC50: βIII-tubulin overexpressing HeLa
[2] = tested on: 4T1-Luc2GFP triple negative mouse breast cancer cells; assay type: in vivo; details: mouse, in vivo
Protocol: BALB/c mice were implanted with 7.5 k 4T1-Luc2GFP triple negative mouse breast cancer cells orthotopically into mammary fat pad 4. 7 days after implantation, tumors are visible in over 90% of animals. At day 8 and continuing twice weekly until the experiment end, the MTD of compound 4.HCl (i.e. the hydrochloride salt of compound 4 shown in FIG. 1), determined to be 40 mg/kg, was given IP to tumor-bearing mice; […]; Both drugs were in solvent (5% solutol-15, 5% PharmaSolve in normal saline) and a solvent control group was included in addition to sham injected (untreated) group. Primary tumor volume and animal weights was assessed by calipers throughout the experiment.
On day 40, all animals were injected IV with fluorescently labeled dextran as a marker of vasculature. Tumors were excised and weighed; lungs were excised and evaluated for metastases. […]; large micro metastases (>10 cells with no vasculature) and macrometastases (>10 cells with apparent vasculature) were counted. […]

A431 cells = test: A431 cytotoxicity; assay type: cell-based; details: Homo sapiens, A-431

PDGFRβ, sequence (P09619 33-1106, species assumed): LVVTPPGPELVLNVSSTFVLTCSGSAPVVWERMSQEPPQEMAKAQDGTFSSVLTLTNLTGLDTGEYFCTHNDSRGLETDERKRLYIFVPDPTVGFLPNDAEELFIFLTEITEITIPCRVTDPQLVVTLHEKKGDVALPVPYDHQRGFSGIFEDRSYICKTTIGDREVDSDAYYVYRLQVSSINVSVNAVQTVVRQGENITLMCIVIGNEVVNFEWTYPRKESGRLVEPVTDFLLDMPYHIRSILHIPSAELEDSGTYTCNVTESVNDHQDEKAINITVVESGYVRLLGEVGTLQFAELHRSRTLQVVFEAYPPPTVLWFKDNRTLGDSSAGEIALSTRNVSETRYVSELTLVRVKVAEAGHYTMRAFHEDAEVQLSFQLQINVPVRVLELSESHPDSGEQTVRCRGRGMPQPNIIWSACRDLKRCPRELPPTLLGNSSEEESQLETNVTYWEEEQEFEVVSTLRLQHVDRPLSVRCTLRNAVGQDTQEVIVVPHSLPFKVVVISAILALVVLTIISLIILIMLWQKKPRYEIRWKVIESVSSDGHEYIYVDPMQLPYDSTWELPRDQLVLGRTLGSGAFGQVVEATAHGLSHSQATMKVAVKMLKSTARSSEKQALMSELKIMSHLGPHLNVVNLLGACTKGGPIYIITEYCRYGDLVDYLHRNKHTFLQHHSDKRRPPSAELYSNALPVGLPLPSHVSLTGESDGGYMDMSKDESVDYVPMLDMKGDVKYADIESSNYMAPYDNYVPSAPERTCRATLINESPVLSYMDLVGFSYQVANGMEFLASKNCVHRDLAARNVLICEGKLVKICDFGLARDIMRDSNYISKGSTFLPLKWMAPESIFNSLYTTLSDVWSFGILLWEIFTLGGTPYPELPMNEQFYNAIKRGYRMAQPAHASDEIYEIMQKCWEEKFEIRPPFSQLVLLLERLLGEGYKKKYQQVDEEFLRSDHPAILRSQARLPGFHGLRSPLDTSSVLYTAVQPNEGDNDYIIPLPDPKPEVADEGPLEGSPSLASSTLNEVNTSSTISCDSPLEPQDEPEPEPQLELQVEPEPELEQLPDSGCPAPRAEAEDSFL
VEGFR2, sequence (P35968 20-1356, species assumed): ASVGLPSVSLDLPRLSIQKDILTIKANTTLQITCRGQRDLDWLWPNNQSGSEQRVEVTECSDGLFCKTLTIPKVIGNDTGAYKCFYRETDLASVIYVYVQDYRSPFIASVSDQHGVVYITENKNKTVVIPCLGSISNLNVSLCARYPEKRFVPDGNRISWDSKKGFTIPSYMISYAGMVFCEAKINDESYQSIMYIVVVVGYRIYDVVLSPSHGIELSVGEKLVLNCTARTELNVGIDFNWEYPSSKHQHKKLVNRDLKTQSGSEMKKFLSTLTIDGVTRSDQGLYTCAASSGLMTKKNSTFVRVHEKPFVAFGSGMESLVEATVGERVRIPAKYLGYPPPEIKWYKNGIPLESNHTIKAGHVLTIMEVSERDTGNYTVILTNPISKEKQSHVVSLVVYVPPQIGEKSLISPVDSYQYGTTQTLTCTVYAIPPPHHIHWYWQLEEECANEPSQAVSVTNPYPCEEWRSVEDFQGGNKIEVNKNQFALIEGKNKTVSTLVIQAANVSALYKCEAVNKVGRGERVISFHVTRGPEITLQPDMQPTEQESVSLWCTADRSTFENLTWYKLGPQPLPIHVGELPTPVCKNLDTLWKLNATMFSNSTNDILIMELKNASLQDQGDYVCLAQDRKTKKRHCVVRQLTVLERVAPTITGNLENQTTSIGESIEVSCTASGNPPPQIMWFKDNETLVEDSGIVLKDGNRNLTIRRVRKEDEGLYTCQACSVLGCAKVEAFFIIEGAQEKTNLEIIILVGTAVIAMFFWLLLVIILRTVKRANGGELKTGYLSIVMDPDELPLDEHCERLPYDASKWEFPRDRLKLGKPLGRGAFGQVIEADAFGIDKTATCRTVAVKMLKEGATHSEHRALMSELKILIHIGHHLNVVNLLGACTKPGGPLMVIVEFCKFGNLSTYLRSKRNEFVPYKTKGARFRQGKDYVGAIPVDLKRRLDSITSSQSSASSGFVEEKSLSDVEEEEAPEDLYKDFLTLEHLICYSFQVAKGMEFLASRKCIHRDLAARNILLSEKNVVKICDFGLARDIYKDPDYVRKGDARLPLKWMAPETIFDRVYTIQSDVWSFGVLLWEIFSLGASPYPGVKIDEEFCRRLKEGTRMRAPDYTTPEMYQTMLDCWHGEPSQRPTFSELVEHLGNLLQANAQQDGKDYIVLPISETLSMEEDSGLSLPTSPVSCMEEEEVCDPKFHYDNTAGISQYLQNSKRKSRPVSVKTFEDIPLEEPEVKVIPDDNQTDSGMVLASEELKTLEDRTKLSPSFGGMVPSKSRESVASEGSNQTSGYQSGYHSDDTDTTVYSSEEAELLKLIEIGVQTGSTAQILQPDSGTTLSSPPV
EGFR, sequence (P00533 25-1210, species assumed): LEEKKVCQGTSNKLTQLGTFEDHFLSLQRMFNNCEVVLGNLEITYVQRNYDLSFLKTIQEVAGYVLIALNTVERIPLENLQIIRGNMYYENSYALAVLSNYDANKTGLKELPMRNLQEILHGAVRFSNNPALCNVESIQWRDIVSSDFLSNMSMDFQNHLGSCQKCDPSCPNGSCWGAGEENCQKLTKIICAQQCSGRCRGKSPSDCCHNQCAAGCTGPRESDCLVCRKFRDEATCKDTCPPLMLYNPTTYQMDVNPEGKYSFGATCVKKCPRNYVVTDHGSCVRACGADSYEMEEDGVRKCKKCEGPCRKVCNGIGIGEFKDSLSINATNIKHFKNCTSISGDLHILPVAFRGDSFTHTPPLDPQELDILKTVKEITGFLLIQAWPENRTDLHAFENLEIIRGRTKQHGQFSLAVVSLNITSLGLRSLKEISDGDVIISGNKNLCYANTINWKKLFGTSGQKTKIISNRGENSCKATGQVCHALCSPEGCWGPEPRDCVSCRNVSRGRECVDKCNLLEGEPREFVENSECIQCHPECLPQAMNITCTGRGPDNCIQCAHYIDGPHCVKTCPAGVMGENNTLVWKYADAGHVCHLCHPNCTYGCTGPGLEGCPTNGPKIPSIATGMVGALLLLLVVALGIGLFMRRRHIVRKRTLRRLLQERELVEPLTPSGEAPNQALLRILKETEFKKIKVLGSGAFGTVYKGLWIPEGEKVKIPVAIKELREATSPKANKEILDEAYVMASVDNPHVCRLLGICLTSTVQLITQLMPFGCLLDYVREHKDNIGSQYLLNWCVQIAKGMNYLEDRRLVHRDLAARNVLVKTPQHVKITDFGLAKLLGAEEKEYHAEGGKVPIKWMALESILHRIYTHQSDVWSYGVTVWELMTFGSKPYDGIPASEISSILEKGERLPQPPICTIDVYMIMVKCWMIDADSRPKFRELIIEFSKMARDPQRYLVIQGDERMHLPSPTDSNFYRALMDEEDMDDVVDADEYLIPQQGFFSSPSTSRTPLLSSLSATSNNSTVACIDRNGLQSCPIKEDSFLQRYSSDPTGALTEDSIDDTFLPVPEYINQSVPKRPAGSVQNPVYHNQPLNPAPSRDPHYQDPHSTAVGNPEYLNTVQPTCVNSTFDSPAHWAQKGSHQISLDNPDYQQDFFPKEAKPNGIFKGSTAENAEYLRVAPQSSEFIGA

- IC50 (PDGFRβ): 30.2 nM
- IC50 (VEGFR2): 32.9 nM
- melting point: 130 to 132 °C
- IC50 (EGFR): 4.9 ± 0.6 nM
Structure (SMILES): COc1ccc2c(c1)CCCN2c1nc(C)nc2c(Cc3ccccc3)cn(C)c12 [Compound 5, 1-(7-Benzyl-2,5-dimethyl-5H-pyrrolo[3,2-d]pyrimidin-4-yl)-6-methoxy-1,2,3,4-tetrahydroquinoline]
- IC50 (wild type HeLa cells; Homo sapiens): 60 nM

Structure (SMILES): COc1ccc(/C=C\c2cc(OC)c(OC)c(OC)c2)cc1O [combretastatin A-4, reference compound]
- IC50 [1]: 2.5 ± 0.7 nM
- IC50 (wild type HeLa cells): 1.8 nM

Structure (SMILES): CC(=O)O[C@@]12CO[C@@H]1C[C@H](O)[C@@]1(C)C(=O)[C@H](O)C3=C(C)[C@@H](OC(=O)[C@H](O)[C@@H](NC(=O)OC(C)(C)C)c4ccccc4)C[C@@](O)([C@@H](OC(=O)c4ccccc4)[C@H]21)C3(C)C [docetaxel]
- fold less potent in βIII-tubulin overexpressing cell line than in wild type HeLa cells [1]: 3 fold
- IC50 ([1]; Homo sapiens): 13 ± 4 nM
- IC50 (wild type HeLa cells; Homo sapiens): 4 ± 2 nM

Structure (SMILES): COc1cccc2c1C(=O)c1c(O)c3c(c(O)c1C2=O)C[C@@](O)(C(=O)CO)C[C@@H]3O[C@H]1C[C@H](N)[C@H](O)[C@H](C)O1 [doxorubicin, reference compound]
- animal weight [2]: began to result in weight loss in a few animals
- IC50 (A431 cells): 1.35 nM

Structure (SMILES): CC(=O)O[C@H]1C(=O)[C@@]2(C)[C@H]([C@H](OC(=O)c3ccccc3)[C@]3(O)C[C@H](OC(=O)[C@H](O)[C@@H](NC(=O)c4ccccc4)c4ccccc4)C(C)=C1C3(C)C)[C@]1(OC(C)=O)CO[C@@H]1C[C@@H]2O [paclitaxel]
- fold less potent in βIII-tubulin overexpressing cell line than in wild type HeLa cells [1]: 3 fold
- IC50 ([1]; Homo sapiens): 16.1 ± 1 nM
- IC50 (wild type HeLa cells; Homo sapiens): 5.3 ± 2 nM
